These results are taken from US5756092A, “Use, in a composition, as cyclooxygenase activator and/or stabilizer, of at least one pyrimidine derivative sustituted at the 6th position and a cyclooxygenase substrate” (SocieteL'Oreal S.A., priority 1995, dated 1998).

The target in assay [1] is T1, prostaglandin-endoperoxide synthase (PGHS) (Ovis aries, UniProt P05979).
T1 construct: isolated from sheep seminal gland; purchased Cayman Chemical 60100; host or cells: sheep seminal gland
T1 sequence (P05979 25-600): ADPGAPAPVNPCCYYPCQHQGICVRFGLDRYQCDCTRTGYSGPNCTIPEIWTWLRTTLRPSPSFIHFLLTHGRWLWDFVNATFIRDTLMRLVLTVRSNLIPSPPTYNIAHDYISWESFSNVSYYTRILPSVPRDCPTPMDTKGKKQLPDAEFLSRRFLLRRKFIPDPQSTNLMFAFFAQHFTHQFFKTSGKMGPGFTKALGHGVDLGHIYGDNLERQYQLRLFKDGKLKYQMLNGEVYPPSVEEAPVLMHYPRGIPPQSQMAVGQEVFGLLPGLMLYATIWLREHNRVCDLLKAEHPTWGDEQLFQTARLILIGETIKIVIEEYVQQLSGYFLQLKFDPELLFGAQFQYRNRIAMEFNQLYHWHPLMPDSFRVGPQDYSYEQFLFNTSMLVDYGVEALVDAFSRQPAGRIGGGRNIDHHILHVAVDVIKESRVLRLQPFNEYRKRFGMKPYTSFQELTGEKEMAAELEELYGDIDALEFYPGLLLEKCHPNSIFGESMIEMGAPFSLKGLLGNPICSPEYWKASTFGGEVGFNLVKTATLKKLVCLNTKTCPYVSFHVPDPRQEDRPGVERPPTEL
Description: Measurement of the activating and/or stabilizing power at a given concentration (oxygen consumption, Clark electrode). The class given is biochemical, sheep. The following applies: 0.5 mM; 37° C.; initial rate; % relative to control. The source says: As indicated above, the enzymatic activity of a cyclooxygenase is indicated by a consumption of oxygen. It is therefore possible to monitor the course of the reaction in progress by measuring the consumption of oxygen in the reaction medium and thus to evaluate the activity of the enzyme by measuring the consumption of oxygen.
At time T=0 of the process, a buffered solution containing a cyclooxygenase is introduced into a measuring tank and then the whole is allowed to stabilize for at least one minute.
At time T=1 minute, an appropriate quantity of enzyme substrate is added and the oxygen consumption of the reaction is recorded.
This recording makes it possible to deduce the initial rate of the reaction and the period during which the initial rate of the reaction is maintained.
When a substance potentially having an activity on the cyclooxygenase is tested, the variation of the slope in a positive or negative direction relative to the results obtained with the enzyme alone reflects either the activation or the inhibition of the activity of the enzyme.
Measurement of the activating and/or stabilizing power of pyrimidine derivatives substituted at the 6th position, at a given concentration.
The quantity of oxygen necessary for the oxidation of arachidonic acid is measured by the cyclooxygenase activity of prostaglandin-endoperoxide synthase, in the presence or absence of the derivative to be tested.
The measurements of the consumption of oxygen are performed with a Clark electrode connected to a YSI 5300 oxygen meter of the Yellow Spring Instruments trademark.
These measurements are performed in an open chamber, with constant stirring, at a temperature of 37° C.
If a graph recorder is used, the measurement of the oxygen consumption takes the form of a curve whose maximum slope makes it possible to deduce the initial rate of the reaction, and from which it is possible to calculate the period during which the initial rate of the reaction is maintained.
The measurement of the activity of the derivatives to be tested is performed under the same conditions, by adding, to the reaction medium, the derivative to be tested. It is the variation of the slope and the variation of the period during which the maximum rate is maintained which make it possible to evaluate the activity of the derivative to be tested towards cyclooxygenase.
A solution of 0.1M TRIS and 5 mM EDTA at pH=8.00 (TE solution) is prepared.
The substrate is prepared in the form of a stock solution of potassium arachidonate according to the manufacturer's procedure (Interchim, France).
The solution thus obtained has an arachidonic acid titre of 46 mM. It can be stored at 4° C. for 24 hours.
The derivatives to be tested are prepared in the form of a stock solution with a titre of 5 mM in a water/alcohol mixture (80/20) and tested with the same batch of enzyme.
At t=0, there are introduced into the measuring chamber 380 μl of TEA buffer preheated to 37° C. that are allowed to equilibrate for at least one minute.
At t=1, 300 units of enzyme (PGHS) are introduced.
The recording is initiated and the whole is again allowed to stabilize for one minute. The recording obtained gives the base level of the reaction.
After an additional minute, 10 μl of substrate are introduced and the consumption of oxygen is recorded for 2 to 3 minutes.
The initial rate of the reaction and the period during which this rate is maintained are thus determined.
The experimental conditions are identical to those above, except that the TEA buffer preheated to 37° C. is replaced by an identical buffer containing the derivative to be tested at a concentration of 0.5 mM.

Another assay deals with hair growth. The following applies: U.S. Pat. No. 4,596,812; cited from earlier work.
The conditions of assay [2]: U.S. Pat. No. 4,596,812; cited from earlier work.
The target in assay [3] is T2, prostaglandin-endoperoxide synthase (Ovis aries, UniProt P05979).
T2 construct: isolated from sheep seminal gland
T2 sequence (P05979 25-600): T1 sequence (P05979 25-600)
The assay can be described thus: Calculation of the 50% activating concentration (AC 50) for the activation of prostaglandin-endoperoxide synthase. In kind it is biochemical, sheep. The method, then: Calculation of the 50% activating concentration (AC 50) of 2,4-diamino-6-piperidinopyrimidine 3-oxide for the activation of prostaglandin-endoperoxide synthase. 2,4-diamino-6-piperidinopyrimidine 3-oxide Activation
By a statistical calculation (log-linear regression, the correlation coefficient being 0.98 and the significance of the binding less than or equal to 0.01), an AC 50 is found for 40 μM for 2,4-diamino-6-piperidinopyrimidine 3-oxide.

In another assay the test system is cyclooxygenase. The following applies: literature; cited from earlier work.
A further assay has as its system lipoxygenase. The following applies: literature (Bedford et al., 1983); cited from earlier work.

The structures appear in SMILES notation.

`CCCCOc1cc(N)[n+]([O-])c(N)n1` [2,4-diamino-6-butyloxypyrimidine 3-oxide]: the activation at 500 µM in assay [1] was determined as 13%.

`Nc1cc(N2CCCCC2)nc(N)[n+]1[O-]` [2,4-diamino-6-piperidinopyrimidine 3-oxide]: the “capacity to promote hair growth” value with hair growth was “capacity to promote hair growth”. Further, in assay [2], the antihypertensive effects entry is reported as “antihypertensive effects”. Moreover, the activation at 500 µM is 58% in assay [1] and 146% in assay [3] (500 μM, read-out: Activation (% of control)). In assay [3] (15.6 μM, read-out: Activation (% of control)), the activation at 15.6 µM was 23%. For the same compound, the activation at 62.5 µM in assay [3] (62.5 μM, read-out: Activation (% of control)) is 61%. For the same compound, the activation at 125 µM in assay [3] (125 μM, read-out: Activation (% of control)) is 90%. The activation at 250 µM in assay [3] (250 μM, read-out: Activation (% of control)) was 102%. The activation at 1000 µM in assay [3] (1000 μM, read-out: Activation (% of control)) is 181%. The half-maximal activity concentration (AC50) (in general, the concentration giving half of the maximal activity seen) in assay [3] (log-linear regression, correlation coefficient 0.98) is 40 µM.

Take `Nc1cc(N2CCCCC2)nc(N)n1` [2,4-diamino-6-piperidinopyrimidine]: the activation at 500 µM in assay [1] was -14%.

For the compound `CCCNc1cc(N(C)C)nc(NCCC)[n+]1[O-]` [2,4-dipropylamino-6-dimethylaminopyrimidine 3-oxide], the activation at 500 µM in assay [1] is 171%.

As to `CCCNc1cc(N(C)C)nc(N)[n+]1[O-]` [2-amino-4-propylamino-6-dimethylaminopyrimidine 3-oxide], the activation at 500 µM in assay [1] was 117%.

Take `CCCNc1cc(N2CCCCC2)nc(N)[n+]1[O-]` [2-amino-4-propylamino-6-piperidinopyrimidine 3-oxide]: the activation at 500 µM in assay [1] was determined as 173%.

Turning to `Cc1nc(N2CCCCC2)cc(N)[n+]1[O-]` [2-methyl-4-amino-6-piperidinopyrimidine 3-oxide], in assay [1], the activation at 500 µM amounted to 24%.

For `O=C1C(O)=C(O)C(=O)c2cc(Cl)ccc21` [6-chloro-2,3-dihydroxy-1,4-naphthoquinone], the “effect on cyclooxygenase activity” value with cyclooxygenase is “cyclooxygenase stimulating agent”. Also, in the assay with lipoxygenase, the effect on lipoxygenase entry was “lipoxygenase inhibitor”.

Regarding `COc1ccc2c(c1)c(CC(=O)O)c(C)n2C(=O)c1ccc(Cl)cc1` [Indomethacin, 1-(4-Chlorobenzoyl)-5-methoxy-2-methyl-1H-indole-3-acetic acid], the activation at 500 µM in assay [1] is -100%.
